Source: US9481688B2, “(Thieno[2,3-b][1,5]benzoxazepin-4-yl)piperazin-1-yl compounds as dual activity H1 inverse agonists/5-HT2A antagonists” (Eli Lilly and Company, priority 2011, dated 2016)

Assays:
[1] = biological target: human recombinant H1 receptor (Homo sapiens (Human), UniProt P35367); assay: H1 competition binding assay ([3H]-Pyrilamine, SPA)
Experimental: [^3H]-Pyrilamine binding experiments are carried out in SPA (scintillation proximity assay) 96-well format. Membranes used in this assay are prepared from HEK-293 cells stably expressing recombinant H1 receptor (human). The incubation is initiated by the addition of a mixture of WGA PVT SPA beads (1 mg/well, Perkin Elmer (MA, USA) RPNQ0001) and 3 μg membranes to assay buffer (67 mM Tris; pH 7.6) containing 3.5 nM [^3H]-Pyrilamine and varying concentrations of the test compound (10 point concentration response curves). Non-specific binding is determined in the presence of 10 μM Triprolidine. Samples are incubated for 4 hr. at room temperature (22° C.) and then read in a Microbeta Trilux.
Curves are evaluated using a 4-parameter logistic nonlinear equation to obtain the concentration of competitor causing 50% inhibition of radioligand binding (IC50). Equilibrium dissociation constants (Ki) are calculated according to the equation Ki=IC50/(1+L/Kd), where L equals the concentration of radioligand used in the experiment and Kd equals the equilibrium dissociation constant of the radioligand for the receptor, determined from standard saturation analysis or homologous competition experiments. Reported values for Ki, where n values are indicated, are shown as geometric mean±the standard error of the mean (SEM), with the number of replicate determinations indicated by n. […]

[2] = biological target: recombinant 5-HT2A receptor (human) (Homo sapiens (Human), UniProt P28223); assay: 5-HT2A competition binding assay ([3H]-Ketanserin, SPA)
Experimental: [^3H]-Ketanserin binding experiments are carried out in SPA 96-well format. Membranes used in this assay are prepared from AV-12 cells stably expressing recombinant 5-HT2A receptor (human). The incubation is initiated by the addition of a mixture of WGA YSi SPA beads (1 mg/well, Perkin Elmer (MA, USA), RPNQ0011) and 2 μg membranes to assay buffer (67 mM Tris, 0.5 mM EDTA; pH 7.6) containing 3.1 nM [^3H]-Ketanserin and varying concentrations of the test compound (10 point concentration response curves). Non-specific binding is determined in the presence of 20 μM 1-(1-Naphthyl) piperazine. Samples are incubated for 4 hr. at room temperature (22° C.) and then read in a Microbeta Trilux.

[3] = biological target: recombinant 5-HT2C receptor (human) (Homo sapiens (Human), UniProt P28335); assay: 5-HT2C competition binding assay ([125I]-DOI, SPA)
Sequence of recombinant 5-HT2C receptor (human) (P28335 whole entry, looked up): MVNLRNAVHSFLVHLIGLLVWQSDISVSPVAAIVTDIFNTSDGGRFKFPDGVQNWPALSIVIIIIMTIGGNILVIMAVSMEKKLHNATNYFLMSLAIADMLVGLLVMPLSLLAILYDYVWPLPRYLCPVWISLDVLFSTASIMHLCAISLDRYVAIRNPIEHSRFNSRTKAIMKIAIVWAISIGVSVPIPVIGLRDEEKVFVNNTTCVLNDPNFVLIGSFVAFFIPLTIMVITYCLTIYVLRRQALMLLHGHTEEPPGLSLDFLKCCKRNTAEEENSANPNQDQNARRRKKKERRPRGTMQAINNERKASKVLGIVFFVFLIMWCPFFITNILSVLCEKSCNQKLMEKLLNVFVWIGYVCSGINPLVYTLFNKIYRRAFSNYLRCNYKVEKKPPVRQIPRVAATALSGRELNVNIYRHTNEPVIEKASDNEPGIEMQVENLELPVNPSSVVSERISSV
Experimental: [^125I]-(±)DOI binding experiments are carried out in SPA 96-well format. Membranes used in this assay are prepared from AV-12 cells stably expressing recombinant 5-HT2C receptor (human). The incubation is initiated by the addition of a mixture of WGA PVT SPA beads (0.5 mg/well, Perkin Elmer (MA, USA), RPNQ0001) and 2.5 μg membranes to assay buffer (50 mM Tris-HCl, 10 mM MgCl2, 0.5 mM EDTA, 10 μM pargyline, 0.1% ascorbic acid, pH7.4) containing 0.2 nM [[^125I]-(±)DOI and varying concentrations of the test compound (10 point concentration response curves). Non-specific binding is determined in the presence of 20 μM 1-(1-Naphthyl) piperazine. Samples are incubated for 4 hr. at room temperature (22° C.) and then read in a Microbeta Trilux.
Curves are evaluated using a 4-parameter logistic nonlinear equation to obtain the concentration of competitor causing 50% inhibition of radioligand binding (IC50). Equilibrium dissociation constants (Ki) are calculated according to the equation Ki=IC50/(1+L/Kd), where L equals the concentration of radioligand used in the experiment and Kd equals the equilibrium dissociation constant of the radioligand for the receptor, determined from standard saturation analysis or homologous competition experiments. […]

[4] = biological target: Dopamine D2 (Homo sapiens (Human), UniProt P14416); assay: Dopamine D2 binding
Sequence of Dopamine D2 (P14416 whole entry): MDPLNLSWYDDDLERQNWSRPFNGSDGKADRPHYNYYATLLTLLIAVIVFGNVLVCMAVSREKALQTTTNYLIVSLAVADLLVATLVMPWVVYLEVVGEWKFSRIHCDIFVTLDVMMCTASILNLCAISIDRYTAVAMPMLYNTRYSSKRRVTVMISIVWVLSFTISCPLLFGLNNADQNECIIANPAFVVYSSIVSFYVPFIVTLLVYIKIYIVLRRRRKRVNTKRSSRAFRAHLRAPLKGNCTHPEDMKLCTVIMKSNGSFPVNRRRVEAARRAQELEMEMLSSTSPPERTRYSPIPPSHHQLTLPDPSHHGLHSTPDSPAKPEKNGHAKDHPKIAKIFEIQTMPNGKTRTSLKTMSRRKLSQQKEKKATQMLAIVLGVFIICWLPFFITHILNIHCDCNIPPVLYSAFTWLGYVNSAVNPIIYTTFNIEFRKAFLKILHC
Text: (§1) Further, the compounds of the invention may be tested in binding assays and functional activity assays by well known methods for other physiologically important receptors such as, but not limited to, the hERG channel, other serotonin receptors (specifically 5-HT1B, 5-HT1D, receptors, lack of agonist activity at 5-HT2B receptors, 5-HT2C, 5-HT5, 5-HT6, and 5-HT7 receptors), dopaminergic receptors (specifically D1, D2, and D3), GABAA receptors, adrenergic receptors and monoamine transporters.

[5] = biological target: Dopamine D3 (Homo sapiens (Human), UniProt P35462); assay: Dopamine D3 binding
Sequence of Dopamine D3 (P35462 whole entry): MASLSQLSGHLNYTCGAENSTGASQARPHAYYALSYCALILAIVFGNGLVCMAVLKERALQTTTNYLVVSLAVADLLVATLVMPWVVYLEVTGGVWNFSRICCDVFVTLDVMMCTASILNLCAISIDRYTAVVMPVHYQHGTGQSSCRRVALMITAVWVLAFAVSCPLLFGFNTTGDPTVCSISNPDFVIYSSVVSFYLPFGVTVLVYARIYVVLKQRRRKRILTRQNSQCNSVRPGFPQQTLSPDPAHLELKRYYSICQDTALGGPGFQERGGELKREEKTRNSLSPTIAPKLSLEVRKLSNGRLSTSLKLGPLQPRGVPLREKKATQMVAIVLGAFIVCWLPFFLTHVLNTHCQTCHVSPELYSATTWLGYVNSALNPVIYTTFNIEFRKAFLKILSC
Text: as §1

[6] = Plasma clearance in rat (intravenous); type: in vivo; conditions: male, Sprague Dawley, rat, plasma, iv, 1 mg/kg, read-out: Clearance
Experimental: Male Sprague Dawley rats (body weight range 250-320 g) with indwelling femoral arterial cannulae are obtained from Charles River, Wilmington, Mass. 01887, USA. Test compound is administered intravenously in solution (1 mL/kg) in 20% Captisol® in 22.5 mM phosphate buffer, pH 2, at a final drug concentration of 1.0 mg/mL (free base equivalents). Blood samples are obtained using the indwelling cannula over 24 hr. Samples of plasma are obtained by centrifugation and stored frozen (−20° C.), or on dry ice, prior to analysis.
Frozen plasma samples are thawed to room temperature for bioanalysis of concentrations of test compound. A related internal standard compound in acetonitrile/methanol (1:1, v/v) is added to all samples of plasma (1:1, v/v). The samples are centrifuged to remove precipitated protein prior to analysis. The supernatants are analysed by injection and rapid gradient elution on a Javelin Betasil C18 column (20×2.1 mm cartridge, Mobile phase A: Water/1 M NH4HCO3, 2000:10 v/v, Mobile Phase B: MeOH/1 M NH4HCO3, 2000:10 v/v). The eluted analytes are detected by LC-MS-MS analysis using a Sciex API 4000 triple quadrupole mass spectrometer. Concentrations of compound are determined from standards prepared and analysed under identical conditions. Clearance is calculated using non-compartmental analysis in Watson 7.4, Thermo Fisher Scientific, Inc.

Sequence of human recombinant H1 receptor (P35367 whole entry): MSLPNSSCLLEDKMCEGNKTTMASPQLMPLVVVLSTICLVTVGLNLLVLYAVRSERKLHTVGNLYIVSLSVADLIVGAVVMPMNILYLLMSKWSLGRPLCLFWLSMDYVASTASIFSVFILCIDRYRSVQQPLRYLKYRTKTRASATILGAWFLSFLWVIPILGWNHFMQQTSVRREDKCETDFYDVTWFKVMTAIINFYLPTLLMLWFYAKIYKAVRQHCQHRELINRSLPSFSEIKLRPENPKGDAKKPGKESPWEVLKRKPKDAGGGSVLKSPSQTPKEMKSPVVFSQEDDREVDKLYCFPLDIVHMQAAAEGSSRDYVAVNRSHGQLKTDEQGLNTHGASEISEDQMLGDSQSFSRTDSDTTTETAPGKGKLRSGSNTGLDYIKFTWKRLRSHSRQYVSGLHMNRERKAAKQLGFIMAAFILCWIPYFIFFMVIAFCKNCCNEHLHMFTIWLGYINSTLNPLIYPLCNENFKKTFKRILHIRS

Which results are given for `Cc1ccc2c(c1)Oc1sc(Cl)cc1C(N1CCN(CC(C)(C)C(=O)O)CC1)=N2` [Example 1, 3-[4-(2-Chloro-8-methyl-thieno[2,3-b][1,5]benzoxazepin-4-yl)piperazin-1-yl]-2,2-dimethyl-propanoic acid]?
Ki [1]: 0.0206 µM; Ki [2]: 0.00337 µM; Ki [3]: 0.137 µM; Ki [4]: 2.78 µM; Ki [5]: > 5.51 µM; clearance [6]: 14.1 mL/min/kg
